# In US20250171462A1 (NICO Therapeutics, Inc., priority 2022, published 2025):
# Where two headings read alike, the source gives them in different places.
# Target: T1, full-length SARM1 (FL-SARM1) (Homo sapiens, UniProt Q6SZW1)
# T1 sequence (Q6SZW1 28-724): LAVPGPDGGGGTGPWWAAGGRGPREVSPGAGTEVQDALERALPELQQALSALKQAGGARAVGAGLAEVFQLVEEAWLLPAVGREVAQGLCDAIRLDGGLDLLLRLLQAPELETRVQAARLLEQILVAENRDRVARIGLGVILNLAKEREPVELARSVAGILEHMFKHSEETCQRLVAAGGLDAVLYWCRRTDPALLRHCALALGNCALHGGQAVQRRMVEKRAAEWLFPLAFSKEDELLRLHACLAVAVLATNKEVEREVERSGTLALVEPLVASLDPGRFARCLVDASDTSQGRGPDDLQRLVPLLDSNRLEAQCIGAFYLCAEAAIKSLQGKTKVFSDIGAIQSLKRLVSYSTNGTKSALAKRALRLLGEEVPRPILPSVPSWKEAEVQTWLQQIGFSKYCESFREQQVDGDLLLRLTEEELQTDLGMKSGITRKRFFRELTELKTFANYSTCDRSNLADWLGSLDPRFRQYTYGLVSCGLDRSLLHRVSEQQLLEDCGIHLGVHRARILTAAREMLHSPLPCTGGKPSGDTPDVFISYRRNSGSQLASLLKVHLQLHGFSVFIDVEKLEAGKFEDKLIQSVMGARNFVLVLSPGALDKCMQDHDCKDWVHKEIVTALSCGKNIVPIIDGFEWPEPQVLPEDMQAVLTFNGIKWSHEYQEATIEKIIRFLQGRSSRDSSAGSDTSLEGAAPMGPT
# Experiment: FL-SARM1 cellular lysate assay (NAD/NADH-Glo detection of remaining NAD+, NMN-activated)
# [1] = Activity (μM) (IC50), 11 point curve
# [2] = read-out: Activity (IC50 class), 11 point curve
# [3] = Activity (IC50 class), 11 point curve
Compound,IC50 [1],IC50 [2],IC50 [3]
"Cc1ccc(NC(=O)N2C3CCC2[C@@H](C)C3)cc1-c1ncc(F)cn1 (single isomer, unassigned) [Example 195, cis-N-(3-(5-fluoropyrimidin-2-yl)-4-methylphenyl)-2-methyl-7-azabicyclo[2.2.1]heptane-7-carboxamide]",0.3 µM,0.0001 to 1 µM,
"Cc1ccc(NC(=O)N2C3CCC2[C@@H](C)C3)cc1-c1ncc(F)cn1 (single isomer, unassigned) [Example 196, cis-N-(3-(5-fluoropyrimidin-2-yl)-4-methylphenyl)-2-methyl-7-azabicyclo[2.2.1]heptane-7-carboxamide]",0.8 µM,0.0001 to 1 µM,
"Cc1ccc(NC(=O)N2C3CCC2[C@H](C)C3)cc1-c1ncc(F)cn1 (single isomer, unassigned) [Example 197, trans-N-[3-(5-fluoropyrimidin-2-yl)-4-methylphenyl]-2-methyl-7-azabicyclo[2.2.1]heptane-7-carboxamide]",0.4 µM,0.0001 to 1 µM,
"Cc1ccc(NC(=O)N2C3CCC2[C@H](C)C3)cc1-c1ncc(F)cn1 (single isomer, unassigned) [Example 198, trans-N-[3-(5-fluoropyrimidin-2-yl)-4-methylphenyl]-2-methyl-7-azabicyclo[2.2.1]heptane-7-carboxamide]",0.3 µM,0.0001 to 1 µM,
"COCC12CC(C)CC(C1)N2C(=O)Nc1cc(-c2ncccn2)c(C)cc1F (single isomer, unassigned) [Example 199, trans-N-(2-fluoro-4-methyl-5-pyrimidin-2-ylphenyl)-1-(methoxymethyl)-3-methyl-6-azabicyclo[3.1.1]heptane-6-carboxamide]",4.3 µM,,1 to 10 µM
"COCC12CC(C)CC(C1)N2C(=O)Nc1cc(-c2ncccn2)c(C)cc1F (single isomer, unassigned) [Example 200, trans-N-(2-fluoro-4-methyl-5-pyrimidin-2-ylphenyl)-1-(methoxymethyl)-3-methyl-6-azabicyclo[3.1.1]heptane-6-carboxamide]",0.1 µM,0.0001 to 1 µM,
"Cc1cc(F)c(NC(=O)N2CC3CC2c2ccccc23)cc1-c1cccnn1 (single isomer, unassigned) [Example 201, N-(2-fluoro-4-methyl-5-pyridazin-3-ylphenyl)-9-azatricyclo[6.2.1.02,7]undeca-2(7),3,5-triene-9-carboxamide]",2 µM,,1 to 10 µM
"Cc1cc(F)c(NC(=O)N2CC3CC2c2ccccc23)cc1-c1cccnn1 (single isomer, unassigned) [Example 202, N-(2-fluoro-4-methyl-5-pyridazin-3-ylphenyl)-9-azatricyclo[6.2.1.02,7]undeca-2(7),3,5-triene-9-carboxamide]",6.7 µM,1 to 10 µM,
"Cc1ccc(NC(=O)C2[C@@H]3CC[C@@]2(c2ccnn2C)C3)cc1-c1ncc(F)cn1 (single isomer, unassigned) [Example 203, N-[3-(5-fluoropyrimidin-2-yl)-4-methylphenyl]-1-(2-methylpyrazol-3-yl)bicyclo[2.1.1]hexane-5-carboxamide]",> 50 µM,,> 10 µM
"Cc1ccc(NC(=O)C2[C@@H]3CC[C@@]2(c2ccnn2C)C3)cc1-c1ncc(F)cn1 (single isomer, unassigned) [Example 204, N-[3-(5-fluoropyrimidin-2-yl)-4-methylphenyl]-1-(2-methylpyrazol-3-yl)bicyclo[2.1.1]hexane-5-carboxamide]",0.5 µM,0.0001 to 1 µM,
"Cc1ccc(NC(=O)[C@H]2CC[C@@H](C)CN2c2ncccn2)cc1-c1ncccn1 (single isomer, unassigned) [Example 205, cis-5-methyl-N-(4-methyl-3-(pyrimidin-2-yl)phenyl)-1-(pyrimidin-2-yl)piperidine-2-carboxamide]",0.3 µM,0.0001 to 1 µM,
"Cc1ccc(NC(=O)[C@H]2CC[C@@H](C)CN2c2ncccn2)cc1-c1ncccn1 (single isomer, unassigned) [Example 206, cis-5-methyl-N-(4-methyl-3-(pyrimidin-2-yl)phenyl)-1-(pyrimidin-2-yl)piperidine-2-carboxamide]",0.7 µM,0.0001 to 1 µM,
"Cc1ccc(NC(=O)C2COC(C)(C)CN2c2ncccn2)cc1-c1ncccn1 (single isomer, unassigned) [Example 207, 6,6-dimethyl-N-(4-methyl-3-(pyrimidin-2-yl)phenyl)-4-(pyrimidin-2-yl)morpholine-3-carboxamide]",> 50 µM,,> 10 µM
"Cc1ccc(NC(=O)C2COC(C)(C)CN2c2ncccn2)cc1-c1ncccn1 (single isomer, unassigned) [Example 208, 6,6-dimethyl-N-(4-methyl-3-(pyrimidin-2-yl)phenyl)-4-(pyrimidin-2-yl)morpholine-3-carboxamide]",3.3 µM,,1 to 10 µM
"COC(C)[C@@]12CC(C[C@@H](C)C1)N2C(=O)Nc1ccc(C(F)(F)F)c(-c2nccnn2)c1 (single isomer, unassigned) [Example 209, cis-N-(3-(1,2,4-triazin-3-yl)-4-(trifluoromethyl)phenyl)-1-(1-methoxyethyl)-3-methyl-6-azabicyclo[3.1.1]heptane-6-carboxamide]",0.5 µM,0.0001 to 1 µM,
"COC(C)[C@@]12CC(C[C@@H](C)C1)N2C(=O)Nc1ccc(C(F)(F)F)c(-c2nccnn2)c1 (single isomer, unassigned) [Example 210, cis-N-(3-(1,2,4-triazin-3-yl)-4-(trifluoromethyl)phenyl)-1-(1-methoxyethyl)-3-methyl-6-azabicyclo[3.1.1]heptane-6-carboxamide]",> 50 µM,,> 10 µM
"COC(C)[C@@]12CC(C[C@@H](C)C1)N2C(=O)Nc1ccc(C(F)(F)F)c(-c2nccnn2)c1 (single isomer, unassigned) [Example 211, cis-N-(3-(1,2,4-triazin-3-yl)-4-(trifluoromethyl)phenyl)-1-(1-methoxyethyl)-3-methyl-6-azabicyclo[3.1.1]heptane-6-carboxamide]",0.004 µM,0.0001 to 1 µM,
"COC(C)[C@@]12CC(C[C@@H](C)C1)N2C(=O)Nc1ccc(C(F)(F)F)c(-c2nccnn2)c1 (single isomer, unassigned) [Example 212, cis-N-(3-(1,2,4-triazin-3-yl)-4-(trifluoromethyl)phenyl)-1-(1-methoxyethyl)-3-methyl-6-azabicyclo[3.1.1]heptane-6-carboxamide]",9.6 µM,,1 to 10 µM
"Cc1cc(F)c(NC(=O)[C@@H]2CC2(F)F)cc1-c1ccccn1 (stereo in doubt) [Example 143, 2,2-difluoro-N-(2-fluoro-4-methyl-5-pyridin-2-ylphenyl)cyclopropane-1-carboxamide]",1.8 µM,,1 to 10 µM
"COC(=O)N1C[C@@H]2C[C@H]1CN2C(=O)Nc1ccc(C)c(-c2ccccn2)c1 [Example 1, (1S,4S)-Methyl 5-((4-methyl-3-(pyridin-2-yl)phenyl)carbamoyl)-2,5-diazabicyclo[2.2.1]heptane-2-carboxylate]",23 µM,,> 10 µM
"Cc1ccc(NC(=O)N2C3CC2CN(C(C)C(F)(F)F)C3)cc1-c1ccccn1 (stereo not drawn) [Example 2, N-(4-Methyl-3-(pyridin-2-yl)phenyl)-3-(1,1,1-trifluoropropan-2-yl)-3,6-diazabicyclo[3.1.1]heptane-6-carboxamide]",0.7 µM,0.0001 to 1 µM,
"Cc1cc(F)c(NC(=O)N2C3CC2CN(CC(F)(F)F)C3)cc1-c1ccccn1 [Example 3, N-(2-Fluoro-4-methyl-5-(pyridin-2-yl)phenyl)-3-(2,2,2-trifluoroethyl)-3,6-diazabicyclo[3.1.1]heptane-6-carboxamide]",1.2 µM,,1 to 10 µM
"Cc1ccc(NC(=O)N2C3CC2CN(CC(F)(F)F)C3)cc1-c1ccccn1 [Example 4, N-(4-methyl-3-(pyridin-2-yl)phenyl)-3-(2,2,2-trifluoroethyl)-3,6-diazabicyclo[3.1.1]heptane-6-carboxamide]",0.4 µM,0.0001 to 1 µM,
"Cc1ccc(NC(=O)N2C3CC2CN(CC(F)F)C3)cc1-c1ccccn1 [Example 5, 3-(2,2-difluoroethyl)-N-(4-methyl-3-(pyridin-2-yl)phenyl)-3,6-diazabicyclo[3.1.1]heptane-6-carboxamide]",0.8 µM,0.0001 to 1 µM,
"Cc1ccc(NC(=O)N2C3CC2CN(C2CCC2)C3)cc1-c1ccccn1 [Example 6, 3-Cyclobutyl-N-(4-methyl-3-(pyridin-2-yl)phenyl)-3,6-diazabicyclo[3.1.1]heptane-6-carboxamide]",4.2 µM,,1 to 10 µM
"CCN1CC2CC(C1)N2C(=O)Nc1ccc(C)c(-c2ccccn2)c1 [Example 7, 3-Ethyl-N-(4-methyl-3-(pyridin-2-yl)phenyl)-3,6-diazabicyclo[3.1.1]heptane-6-carboxamide]",4 µM,,1 to 10 µM
"Cc1ccc(NC(=O)N2C3CCC2c2ccccc23)cc1-c1ccccn1 [Example 8, N-[4-Methyl-3-(2-pyridyl)phenyl]-11-azatricyclo[6.2.1.02,7]undeca-2,4,6-triene-11-carboxamide]",0.06 µM,0.0001 to 1 µM,
